In PMC5516028, “Molecular tools for GABAA receptors: High affinity ligands for β1-containing subtypes” (Scientific Reports, 2017):

How the values were obtained:
Type in all cases: cell-based
α2β3γ2 GABAA receptors = molecular target: T1, α2β3γ2 GABAA receptors (Rattus norvegicus, UniProt P23576+P63079); assay: Two electrode voltage clamp in Xenopus laevis oocytes, α2β3γ2
T1 construct: expressed in transfected cells; host or cells: Xenopus laevis oocytes, mRNA injected
Source text: (§1) cDNA’s of rat GABAA receptor subunits α1, α4, β1, β2, β3 and γ2S were cloned as described. cDNAs of the rat subunits α2, α3 and α5 were gifts from P. Malherbe, that of α6 and γ1 were gifts of P. Seeburg and that of δ was a gift of C. Czajkowski. The mutants were constructed using the Q5 Site-Directed Mutagenesis Kit (New England Biolabs) following manufacturer’s instruction. We used the wild-type rat β3-pCI vector as template and the primers […] and […] resulting in a substitution of amino acid N41 (AAC) to R (AGG). We used the wild-type rat β1-pCI vector as template and the primers […] and […] resulting in a substitution of amino acid R41 (CGG) to N (AAC). The mutated subunits were confirmed by sequencing.
(§2) In vitro transcription of mRNA was based on the cDNA expression vectors encoding for rat GABAA receptor subunits α1–6, β1-3, γ1,2, δ and the two β mutants (β1R41N and β3N41R)[40]. After linearizing the cDNA vectors with appropriate restriction endonucleases, the cDNA was purified and concentrated with the DNA Clean and Contentrator ^TM Kit (Zymoresearch, Catalog No. D4005). Capped transcripts of the purified cDNA were produced using the mMESSAGE mMACHINE® T7 transcription kit (Ambion, TX, USA) and polyadenylated using the Ambion PolyA tailing kit (Ambion). After transcription and polyadenylation the RNA was purified with the MEGAclear ^TM Kit (Ambion, Catalog No. AM1908). The final RNA concentration was measured on NanoDrop® ND-1000 and finally diluted and stored in diethylpyrocarbonate-treated water at −80 °C. For the microinjection, the RNA of αβ receptor combinations was mixed at 1:1 ratio (which leads to αβ receptors that consist of predominantly 3 beta and 2 alpha subunits[27]), for αkβlγm (k = 1–3, l = 1, 3, m = 1, 2) receptors at 1:1:5 ratio, for αkβ3γ2 (k = 4–6) and αkβlδ (k = 1, 4 and 6, l = 1, 3) receptor combinations at 3:1:5 ratio.
(§3) Mature female Xenopus laevis (Nasco, WI) were anesthetized in a bath of ice-cold 0.17% Tricain (Ethyl-m-aminobenzoate, Sigma, MO) before decapitation in full accordance with all rules of the Austrian animal protection law (see http://www.ris.bka.gv.at/Dokumente/BgblAuth/BGBLA_2012_I_114/BGBLA_2012_I_114.pdf) and the Austrian animal experiment by-laws (see https://www.ris.bka.gv.at/Dokumente/BgblAuth/BGBLA_2012_II_522/BGBLA_2012_II_522.pdf) which implement the European Directive 2010/63/EU (see http://eur-lex.europa.eu/LexUriServ/LexUriServ.do?uri=OJ:L:2010:276:0033:0079:en:PDF) into the Austrian law (all information accessed on July 27, 2016). The frog’s ovaries were transferred to ND96 medium (96 mM NaCl, 2 mM KCl, 1 mM MgCl2, 5 mM HEPES; pH 7.5). Stage 5–6 oocytes with the follicle cell layer around them were roughly dissected with forceps into packages of 10–15 cells and washed in Ca^2+-free ND96 medium. Cells were then digested with collagenase (type IA, Sigma, NO, 1 mg/mL ND96) at 18 °C shaking at 30 rpm for 30–60 minutes and gently defolliculated with the aid of a glass pipette with appropriate tip diameter and a platinum loop. Defolliculated cells were stored at 18 °C for at least 6 hours in ND96 solution containing penicillin G (10000 IU/100 mL) and streptomycin (10 mg/100 mL) in order to preselect and exclude damaged cells from further treatment. Healthy defolliculated oocytes were injected with an aqueous solution of mRNA. A total of 4.5 ng of mRNA per oocyte was injected with a Nanoject II (Drummond). After injection of mRNA, oocytes were incubated at 18 °C (ND96 + antibiotic) for 2–3 days for αβ receptors and for 3–4 days for αβγ or αβδ receptors before recording. When cells were measured at later time points, oocytes were stored at +4 °C instead of 18 °C.
(§4) For electrophysiological recordings, oocytes were placed on a nylon-grid in a bath of Ca^2+-containing NDE solution medium [96 mM NaCl, 5 mM HEPES-NaOH (pH 7.5), 2 mM KCl, 1 mM MgCl2, 1.8 mM CaCl2].

α3β3γ2 GABAA receptors = molecular target: T2, α3β3γ2 GABAA receptors (Rattus norvegicus, UniProt P20236+P63079); assay: Two electrode voltage clamp in Xenopus laevis oocytes, α3β3γ2
T2 construct: expressed in transfected cells; host or cells: Xenopus laevis oocytes, mRNA injected
Source text: as §1, §2, §3, §4

α4β3γ2 GABAA receptors = molecular target: T3, α4β3γ2 GABAA receptors (Rattus norvegicus, UniProt P28471+P63079); assay: Two electrode voltage clamp in Xenopus laevis oocytes, α4β3γ2
T3 construct: expressed in transfected cells; host or cells: Xenopus laevis oocytes, mRNA injected
Source text: as §1, §2, §3, §4

α5β3γ2 GABAA receptors = molecular target: T4, α5β3γ2 GABAA receptors (Rattus norvegicus, UniProt P19969+P63079); assay: Two electrode voltage clamp in Xenopus laevis oocytes, α5β3γ2
T4 construct: expressed in transfected cells; host or cells: Xenopus laevis oocytes, mRNA injected
Source text: as §1, §2, §3, §4

α6β3γ2 GABAA receptors = molecular target: T5, α6β3γ2 GABAA receptors (Rattus norvegicus, UniProt P30191+P63079); assay: Two electrode voltage clamp in Xenopus laevis oocytes, α6β3γ2
T5 construct: expressed in transfected cells; host or cells: Xenopus laevis oocytes, mRNA injected
Source text: as §1, §2, §3, §4

α2β3 GABAA receptors = molecular target: T6, α2β3 GABAA receptors (Rattus norvegicus, UniProt P23576+P63079); assay: Two electrode voltage clamp in Xenopus laevis oocytes, α2β3; conditions: α2β3
T6 construct: expressed in transfected cells; host or cells: Xenopus laevis oocytes, mRNA injected
Source text: as §1, §2, §3, §4

α5β3 GABAA receptors = molecular target: T7, α5β3 GABAA receptors (Rattus norvegicus, UniProt P19969+P63079); assay: Two electrode voltage clamp in Xenopus laevis oocytes, α5β3
T7 construct: expressed in transfected cells; host or cells: Xenopus laevis oocytes, mRNA injected
Source text: as §1, §2, §3, §4

[1] = read-out: efficacy, % of control current (GABA EC3-5 = 100%), 1 nM
[2] = read-out: efficacy, % of control current (GABA EC3-5 = 100%), 100 nM
[3] = read-out: efficacy, % of control current (GABA EC3-5 = 100%), 10 µM
[4] = read-out: efficacy, % of control current (GABA EC3-5 = 100%), 10 nM
[5] = read-out: efficacy, % of control current (GABA EC3-5 = 100%), 1 µM

T3 sequence (P28471 36-552): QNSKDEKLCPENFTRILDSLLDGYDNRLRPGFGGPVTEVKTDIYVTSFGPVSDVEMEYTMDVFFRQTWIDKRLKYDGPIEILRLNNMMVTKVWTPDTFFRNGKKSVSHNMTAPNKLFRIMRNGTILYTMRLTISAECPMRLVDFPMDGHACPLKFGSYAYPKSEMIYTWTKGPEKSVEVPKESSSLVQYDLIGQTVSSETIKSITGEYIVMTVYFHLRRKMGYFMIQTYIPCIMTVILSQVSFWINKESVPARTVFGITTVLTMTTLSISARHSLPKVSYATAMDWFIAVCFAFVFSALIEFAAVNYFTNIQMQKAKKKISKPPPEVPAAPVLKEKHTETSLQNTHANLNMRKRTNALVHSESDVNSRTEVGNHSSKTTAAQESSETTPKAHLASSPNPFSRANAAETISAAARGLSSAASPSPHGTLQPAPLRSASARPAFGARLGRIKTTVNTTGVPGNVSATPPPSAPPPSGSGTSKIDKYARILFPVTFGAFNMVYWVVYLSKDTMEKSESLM
T3 sequence (P63079 26-473): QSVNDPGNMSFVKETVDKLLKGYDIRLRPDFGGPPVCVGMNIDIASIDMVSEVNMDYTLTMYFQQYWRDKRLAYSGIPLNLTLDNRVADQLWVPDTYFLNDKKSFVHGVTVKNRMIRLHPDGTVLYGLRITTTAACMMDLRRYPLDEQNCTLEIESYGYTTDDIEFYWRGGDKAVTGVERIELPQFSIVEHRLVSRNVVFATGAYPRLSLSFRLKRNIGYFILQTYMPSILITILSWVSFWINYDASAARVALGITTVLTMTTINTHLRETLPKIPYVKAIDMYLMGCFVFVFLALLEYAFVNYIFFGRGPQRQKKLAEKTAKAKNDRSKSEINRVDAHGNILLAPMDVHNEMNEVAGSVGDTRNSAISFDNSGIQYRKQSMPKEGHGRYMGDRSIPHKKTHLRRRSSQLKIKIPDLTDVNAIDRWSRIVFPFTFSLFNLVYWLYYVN
T3 sequence (P18508 39-466 partner): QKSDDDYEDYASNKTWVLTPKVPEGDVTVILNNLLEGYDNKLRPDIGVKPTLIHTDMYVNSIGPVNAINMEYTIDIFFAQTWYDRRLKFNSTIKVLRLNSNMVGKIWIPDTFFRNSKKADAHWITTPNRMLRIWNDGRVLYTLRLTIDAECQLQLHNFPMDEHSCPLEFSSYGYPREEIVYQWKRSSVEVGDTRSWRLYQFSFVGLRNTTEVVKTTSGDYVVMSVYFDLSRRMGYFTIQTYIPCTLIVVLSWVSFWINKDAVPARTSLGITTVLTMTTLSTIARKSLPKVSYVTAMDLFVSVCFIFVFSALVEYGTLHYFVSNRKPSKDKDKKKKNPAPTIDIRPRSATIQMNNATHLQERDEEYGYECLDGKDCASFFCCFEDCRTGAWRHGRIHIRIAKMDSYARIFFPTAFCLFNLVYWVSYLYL
T2 sequence (P20236 29-493): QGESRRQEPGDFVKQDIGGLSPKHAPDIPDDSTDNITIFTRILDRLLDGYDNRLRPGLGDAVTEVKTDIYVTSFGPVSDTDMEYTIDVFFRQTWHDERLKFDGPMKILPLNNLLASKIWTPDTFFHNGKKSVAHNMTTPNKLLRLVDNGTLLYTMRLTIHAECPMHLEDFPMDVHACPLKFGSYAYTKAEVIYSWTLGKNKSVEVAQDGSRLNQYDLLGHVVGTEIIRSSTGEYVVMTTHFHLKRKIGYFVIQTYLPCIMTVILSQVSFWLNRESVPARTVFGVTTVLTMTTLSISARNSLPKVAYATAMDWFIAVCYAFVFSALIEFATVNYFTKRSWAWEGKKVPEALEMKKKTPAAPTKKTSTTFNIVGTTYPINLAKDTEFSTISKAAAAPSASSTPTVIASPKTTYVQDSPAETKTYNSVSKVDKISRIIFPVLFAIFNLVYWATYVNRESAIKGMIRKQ
T2 sequence (P63079 26-473): as the sequence (P63079 26-473) above
T2 sequence (P18508 39-466 partner): as the sequence (P18508 39-466 partner) above
T1 sequence (P23576 29-451): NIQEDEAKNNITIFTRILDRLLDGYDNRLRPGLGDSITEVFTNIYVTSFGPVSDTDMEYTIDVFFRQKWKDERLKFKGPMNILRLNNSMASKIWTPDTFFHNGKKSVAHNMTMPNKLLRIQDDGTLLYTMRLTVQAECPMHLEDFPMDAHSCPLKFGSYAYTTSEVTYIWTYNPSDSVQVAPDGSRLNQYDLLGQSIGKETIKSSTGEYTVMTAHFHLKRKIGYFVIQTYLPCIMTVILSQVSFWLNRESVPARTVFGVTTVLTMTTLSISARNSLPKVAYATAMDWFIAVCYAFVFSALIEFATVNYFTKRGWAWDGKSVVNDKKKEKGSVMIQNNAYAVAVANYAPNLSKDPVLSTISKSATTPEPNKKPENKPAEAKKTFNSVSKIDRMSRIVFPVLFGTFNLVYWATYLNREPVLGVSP
T1 sequence (P63079 26-473): as the sequence (P63079 26-473) above
T1 sequence (P18508 39-466 partner): as the sequence (P18508 39-466 partner) above
T6 sequence (P23576 29-451): as the sequence (P23576 29-451) above
T6 sequence (P63079 26-473): as the sequence (P63079 26-473) above
T4 sequence (P19969 32-464 limits assumed): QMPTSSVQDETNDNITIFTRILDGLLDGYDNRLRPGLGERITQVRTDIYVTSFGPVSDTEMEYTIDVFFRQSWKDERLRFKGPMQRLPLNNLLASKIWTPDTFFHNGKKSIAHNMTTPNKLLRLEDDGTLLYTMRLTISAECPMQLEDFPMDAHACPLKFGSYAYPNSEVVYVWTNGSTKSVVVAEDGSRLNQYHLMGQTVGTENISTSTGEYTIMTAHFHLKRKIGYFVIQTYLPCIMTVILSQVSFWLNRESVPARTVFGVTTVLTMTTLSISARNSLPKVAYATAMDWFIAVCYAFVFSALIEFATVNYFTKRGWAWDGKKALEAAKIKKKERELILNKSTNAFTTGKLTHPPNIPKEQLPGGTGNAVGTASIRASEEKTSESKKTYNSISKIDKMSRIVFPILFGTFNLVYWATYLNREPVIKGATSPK
T4 sequence (P63079 26-473): as the sequence (P63079 26-473) above
T4 sequence (P18508 39-466 partner): as the sequence (P18508 39-466 partner) above
T7 sequence (P19969 32-464 limits assumed): as the sequence (P19969 32-464 limits assumed) above
T7 sequence (P63079 26-473): as the sequence (P63079 26-473) above
T5 sequence (P30191 20-453): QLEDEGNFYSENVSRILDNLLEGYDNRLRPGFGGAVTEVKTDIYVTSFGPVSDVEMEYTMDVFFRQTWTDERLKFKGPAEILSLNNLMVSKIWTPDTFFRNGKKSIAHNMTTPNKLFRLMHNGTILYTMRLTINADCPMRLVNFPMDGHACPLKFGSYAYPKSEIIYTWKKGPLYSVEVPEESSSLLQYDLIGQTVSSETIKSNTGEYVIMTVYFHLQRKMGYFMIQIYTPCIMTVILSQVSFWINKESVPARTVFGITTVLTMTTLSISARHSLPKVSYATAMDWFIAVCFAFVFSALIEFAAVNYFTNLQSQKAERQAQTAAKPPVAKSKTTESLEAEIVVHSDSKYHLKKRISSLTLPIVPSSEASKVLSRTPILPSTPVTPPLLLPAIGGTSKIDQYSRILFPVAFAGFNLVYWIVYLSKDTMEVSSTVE
T5 sequence (P63079 26-473): as the sequence (P63079 26-473) above
T5 sequence (P18508 39-466 partner): as the sequence (P18508 39-466 partner) above

In the case of `Cc1ccc(-n2nc3c4cc(Cl)ccc4[nH]cc-3c2=O)cc1` [Compound 2, 8-Chloro-2-(4-methylphenyl)-2H-pyrazolo[4,3-c]quinolin-3(5H)-one], the EC50 (α2β3γ2 GABAA receptors) is reported as 5.5 µM, the activity at 0.001 µM (α2β3γ2 GABAA receptors; read-out: efficacy, % of control current (GABA EC3-5 = 100%), α2β3γ2, 1 nM) is reported as 100% and the activity at 0.01 µM (α2β3γ2 GABAA receptors; read-out: efficacy, % of control current (GABA EC3-5 = 100%), α2β3γ2, 10 nM) is reported as 108 ± 4.2%. The activity at 0.1 µM (α2β3γ2 GABAA receptors; read-out: efficacy, % of control current (GABA EC3-5 = 100%), α2β3γ2, 100 nM) was 111 ± 2.3%, the activity at 0.3 µM (α2β3γ2 GABAA receptors; read-out: efficacy, % of control current (GABA EC3-5 = 100%), α2β3γ2, 300 nM) was 134% and the activity at 1 µM (α2β3γ2 GABAA receptors; read-out: efficacy, % of control current (GABA EC3-5 = 100%), α2β3γ2, 1 µM) was 137 ± 5.5%. It also gave an activity at 10 µM (α2β3γ2 GABAA receptors; read-out: efficacy, % of control current (GABA EC3-5 = 100%), α2β3γ2, 10 µM) of 470 ± 50%, an activity at 30 µM (α2β3γ2 GABAA receptors; read-out: efficacy, % of control current (GABA EC3-5 = 100%), α2β3γ2, 30 µM) of 580% and an EC50 (α3β3γ2 GABAA receptors; co-applied with GABA EC3-5) of 7.2 µM. It also gave an activity at 0.001 µM (α3β3γ2 GABAA receptors; [1]) of 100%, an activity at 0.1 µM (α3β3γ2 GABAA receptors; [2]) of 109 ± 1% and an activity at 10 µM (α3β3γ2 GABAA receptors; [3]) of 305 ± 71%. It also gave an EC50 (α4β3γ2 GABAA receptors) of 13.4 µM, an activity at 0.001 µM (α4β3γ2 GABAA receptors; read-out: efficacy, % of control current (GABA EC3-5 = 100%), α4β3γ2, 1 nM) of 101 ± 1.8% and an activity at 0.003 µM (α4β3γ2 GABAA receptors; read-out: efficacy, % of control current (GABA EC3-5 = 100%), α4β3γ2, 3 nM) of 96.3 ± 8%. For the same compound, the activity at 0.01 µM (α4β3γ2 GABAA receptors; read-out: efficacy, % of control current (GABA EC3-5 = 100%), α4β3γ2, 10 nM) was 100 ± 2.2%, the activity at 0.03 µM (α4β3γ2 GABAA receptors; read-out: efficacy, % of control current (GABA EC3-5 = 100%), α4β3γ2, 30 nM) was 104 ± 4.4% and the activity at 0.1 µM (α4β3γ2 GABAA receptors; read-out: efficacy, % of control current (GABA EC3-5 = 100%), α4β3γ2, 100 nM) was 120 ± 10.1%. It also gave an activity at 1 µM (α4β3γ2 GABAA receptors; read-out: efficacy, % of control current (GABA EC3-5 = 100%), α4β3γ2, 1 µM) of 162 ± 16.3%, an activity at 10 µM (α4β3γ2 GABAA receptors; read-out: efficacy, % of control current (GABA EC3-5 = 100%), α4β3γ2, 10 µM) of 267 ± 16.8% and an activity at 30 µM (α4β3γ2 GABAA receptors; read-out: efficacy, % of control current (GABA EC3-5 = 100%), α4β3γ2, 30 µM) of 315 ± 30.1%. The EC50 (α5β3γ2 GABAA receptors) was 6.4 µM, the activity at 0.001 µM (α5β3γ2 GABAA receptors; read-out: efficacy, % of control current (GABA EC3-5 = 100%), α5β3γ2, 1 nM) was 93.3 ± 5.7% and the activity at 0.01 µM (α5β3γ2 GABAA receptors; read-out: efficacy, % of control current (GABA EC3-5 = 100%), α5β3γ2, 10 nM) was 95.1 ± 6.9%. For the same compound, the activity at 0.1 µM (α5β3γ2 GABAA receptors; read-out: efficacy, % of control current (GABA EC3-5 = 100%), α5β3γ2, 100 nM) was 97.7 ± 11.5%, the activity at 0.3 µM (α5β3γ2 GABAA receptors; read-out: efficacy, % of control current (GABA EC3-5 = 100%), α5β3γ2, 300 nM) was 103 ± 14.9% and the activity at 1 µM (α5β3γ2 GABAA receptors; read-out: efficacy, % of control current (GABA EC3-5 = 100%), α5β3γ2, 1 µM) was 123 ± 16.5%. For the same compound, the activity at 10 µM (α5β3γ2 GABAA receptors; read-out: efficacy, % of control current (GABA EC3-5 = 100%), α5β3γ2, 10 µM) was 220 ± 31.1%, the activity at 30 µM (α5β3γ2 GABAA receptors; read-out: efficacy, % of control current (GABA EC3-5 = 100%), α5β3γ2, 30 µM) was 266 ± 41% and the Emax (α5β3γ2 GABAA receptors; α5-containing subtype (α5β3γ2), read-out: maximum efficacy) was ~200%. The EC50 (α6β3γ2 GABAA receptors; co-applied with GABA EC3-5) was > 5 µM, the activity at 0.001 µM (α6β3γ2 GABAA receptors; [1]) was 106 ± 6.6% and the activity at 0.01 µM (α6β3γ2 GABAA receptors; [4]) was 114 ± 8.8%. The activity at 0.1 µM (α6β3γ2 GABAA receptors; [2]) was 152 ± 12%, the activity at 1 µM (α6β3γ2 GABAA receptors; [5]) was 297 ± 16.2% and the activity at 10 µM (α6β3γ2 GABAA receptors; [3]) was > 1000%. For the same compound, the activity at 0.001 µM (α2β3 GABAA receptors; [1]) was 100%, the activity at 0.01 µM (α2β3 GABAA receptors; [4]) was 100% and the activity at 0.3 µM (α2β3 GABAA receptors; read-out: efficacy, % of control current (GABA EC3-5 = 100%), 300 nM) was 123 ± 4.9%. The activity at 1 µM (α2β3 GABAA receptors; [5]) was 127 ± 9.8%, the activity at 3 µM (α2β3 GABAA receptors; read-out: efficacy, % of control current (GABA EC3-5 = 100%), 3 µM) was 254 ± 4% and the EC50 (α2β3 GABAA receptors; log of EC50, sign as printed, read-out: LogEC50 (converted)) was 15.8 µM. For the same compound, the EC50 (α5β3 GABAA receptors) was 6.1 µM, the activity at 0.001 µM (α5β3 GABAA receptors; read-out: efficacy, % of control current (GABA EC3-5 = 100%), α5β3, 1 nM) was 97.3 ± 1.2% and the activity at 0.1 µM (α5β3 GABAA receptors; read-out: efficacy, % of control current (GABA EC3-5 = 100%), α5β3, 100 nM) was 110 ± 3.6%. It also gave an activity at 0.3 µM (α5β3 GABAA receptors; read-out: efficacy, % of control current (GABA EC3-5 = 100%), α5β3, 300 nM) of 108 ± 6.3%, an activity at 1 µM (α5β3 GABAA receptors; read-out: efficacy, % of control current (GABA EC3-5 = 100%), α5β3, 1 µM) of 132 ± 3.8% and an activity at 3 µM (α5β3 GABAA receptors; read-out: efficacy, % of control current (GABA EC3-5 = 100%), α5β3, 3 µM) of 190 ± 22.9%. The activity at 30 µM (α5β3 GABAA receptors; read-out: efficacy, % of control current (GABA EC3-5 = 100%), α5β3, 30 µM) was 232 ± 21.5%.
